Measurements: PubChem BioAssay (NCI)
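Assay format: 96-well plates, 48-hour exposure. TGI marks complete inhibition of growth.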

Tests used:
Experiment in all cases: NCI tumour cell line growth inhibition, 48 h
RXF 393 renal = system: RXF 393 renal
BT-549 breast = system: BT-549 breast
HS 578T breast = system: HS 578T breast
CAKI-1 renal = system: CAKI-1 renal
NCI-H522 lung = system: NCI-H522 lung
M14 melanoma = system: M14 melanoma
PC-3 prostate = system: PC-3 prostate
MALME-3M melanoma = system: MALME-3M melanoma
MDA-MB-231 breast = system: MDA-MB-231 breast
LOX IMVI melanoma = system: LOX IMVI melanoma
MDA-MB-435 = system: MDA-MB-435
SF-539 CNS = system: SF-539 CNS
HT29 colon = system: HT29 colon
T-47D breast = system: T-47D breast
SW-620 colon = system: SW-620 colon
A498 renal = system: A498 renal
ACHN renal = system: ACHN renal
HL-60(TB) leukemia = system: HL-60(TB) leukemia
SK-OV-3 ovarian = system: SK-OV-3 ovarian
HOP-92 NSCLC = system: HOP-92 NSCLC
MCF7 breast = system: MCF7 breast
SNB-75 CNS = system: SNB-75 CNS
RPMI-8226 leukemia = system: RPMI-8226 leukemia
SK-MEL-2 melanoma = system: SK-MEL-2 melanoma
HCT-15 colon = system: HCT-15 colon
SF-295 CNS = system: SF-295 CNS
SK-MEL-28 melanoma = system: SK-MEL-28 melanoma
U251 CNS = system: U251 CNS
HCT-116 colon = system: HCT-116 colon
NCI/ADR-RES ovarian = system: NCI/ADR-RES ovarian
HCC-2998 colon = system: HCC-2998 colon
A549 NSCLC = system: A549 NSCLC
K-562 leukemia = system: K-562 leukemia
SNB-19 CNS = system: SNB-19 CNS
SR leukemia = system: SR leukemia
TK-10 renal = system: TK-10 renal
OVCAR-8 ovarian = system: OVCAR-8 ovarian
UO-31 renal = system: UO-31 renal
OVCAR-4 ovarian = system: OVCAR-4 ovarian
NCI-H460 lung = system: NCI-H460 lung
COLO 205 colon = system: COLO 205 colon
UACC-257 melanoma = system: UACC-257 melanoma
NCI-H23 lung = system: NCI-H23 lung
786-0 renal = system: 786-0 renal
SF-268 CNS = system: SF-268 CNS
MDA-N = system: MDA-N
MOLT-4 leukemia = system: MOLT-4 leukemia
SK-MEL-5 melanoma = system: SK-MEL-5 melanoma
IGROV1 ovarian = system: IGROV1 ovarian
OVCAR-5 ovarian = system: OVCAR-5 ovarian
NCI-H226 lung = system: NCI-H226 lung
HOP-62 NSCLC = system: HOP-62 NSCLC
SN12C renal = system: SN12C renal
OVCAR-3 ovarian = system: OVCAR-3 ovarian
EKVX NSCLC = system: EKVX NSCLC
DU-145 prostate = system: DU-145 prostate
CCRF-CEM leukemia = system: CCRF-CEM leukemia
KM12 colon = system: KM12 colon
UACC-62 melanoma = system: UACC-62 melanoma

Measured: TGI

COC(=O)/C(C#N)=C(\Nc1ccccc1)N1CCCCC1
not listed: CCRF-CEM leukemia | KM12 colon | UACC-62 melanoma
> 100 µM: all other assays above

CN(CCC(=O)O)S(=O)(=O)c1ccccc1
not listed: HCC-2998 colon
> 100 µM: all other assays above
